# Measurements as given in US20060183119A1, “Method for determining predisposition to a physiological reaction in a patient” (UNIVERSITE LAVAL, priority 2002, published 2006).
# Target: T1, UGT1A7*7 (Homo sapiens, UniProt Q9HAW7, E139D/N129K/R131K)
# T1 construct: expressed in transfected cells
# T1 sequence (Q9HAW7 26-530 N129K/R131K/E139D): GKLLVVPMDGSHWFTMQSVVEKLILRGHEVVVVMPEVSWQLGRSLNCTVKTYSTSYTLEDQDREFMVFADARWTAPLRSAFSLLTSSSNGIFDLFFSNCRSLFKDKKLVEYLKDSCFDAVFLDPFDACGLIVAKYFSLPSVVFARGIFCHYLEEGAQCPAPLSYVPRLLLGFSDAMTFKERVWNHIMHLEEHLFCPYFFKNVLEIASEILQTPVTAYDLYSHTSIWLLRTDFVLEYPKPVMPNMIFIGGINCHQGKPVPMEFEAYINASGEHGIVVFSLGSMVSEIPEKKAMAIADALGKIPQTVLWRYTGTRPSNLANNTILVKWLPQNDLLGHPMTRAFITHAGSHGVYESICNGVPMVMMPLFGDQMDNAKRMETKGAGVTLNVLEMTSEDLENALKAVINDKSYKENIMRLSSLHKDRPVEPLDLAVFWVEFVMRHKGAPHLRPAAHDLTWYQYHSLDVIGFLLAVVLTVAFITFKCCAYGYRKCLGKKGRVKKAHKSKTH
# Experiment: SN-38 glucuronidation by microsomes of HEK293 cells expressing UGT1A7*7
# Format: in vitro ADME
# Design: key to Function (SN-38G formation versus *1 allele): High: no significant difference in activity compared to *1 allele.; Low: significantly lower SN-38G formation versus *1 allele
# Protocol: Western blot analyses of UGT1A7 and UGT1A9 variants expressed in HEK293 cells were performed on microsomal proteins (10 μg) separated on a 10% SDS-polyacrylamide gel. After transferring the proteins, the membranes were probed with an anti-UGT1A RC-71 polyclonal antibody and with an anti-calnexin antibody. The relative levels of UGT1A9 (a) and UGT1A7 proteins (b) were determined by semi-quantitative densitometric analysis of the Enhanced chemiluminescence (ECL) image. The in vitro SN-38 activity was assessed using microsomal fractions prepared from HEK293 cells expressing the *1 and variant UGT1A9 (c) and UGT1A7 (d) alleles and incubated with 5 μM of SN-38 as described in Materials and Methods.
# For the determination of Vmax and Km.
smiles,measurement,setting,value
"CCc1c2c(nc3ccc(O)cc13)-c1cc3c(c(=O)n1C2)COC(=O)[C@]3(O)CC [SN-38, 7-ethyl-10-hydroxycamptothecin]",Function (SN-38G formation versus *1 allele),in vitro experiments,High
same,lower rates of SN-38G formation compared to UGT1A7*1,"range given for *5, *7 and *8 together",38-76%
